What all share (format): functional, organism-based
Assay [1] concerns Plasmodium vivax. The assay is described as follows: Growth inhibition of Plasmodium vivax isolate 3 assessed as parasite LDH synthesis after 48 hrs by double-site Plasmodium LDH antigen capture enzyme-linked immunosorbent assay.
Assay [2] relates to Plasmodium vivax. The assay is described as follows: Growth inhibition of Plasmodium vivax isolate 2 assessed as parasite LDH synthesis after 48 hrs by double-site Plasmodium LDH antigen capture enzyme-linked immunosorbent assay.
In assay [3] the test system is Plasmodium vivax. The assay is described as follows: Growth inhibition of Plasmodium vivax isolate 1 assessed as parasite LDH synthesis after 48 hrs by double-site Plasmodium LDH antigen capture enzyme-linked immunosorbent assay.
Assay [4] deals with Plasmodium vivax. The assay is described as follows: Growth inhibition of Plasmodium vivax isolate 4 assessed as parasite LDH synthesis after 48 hrs by double-site Plasmodium LDH antigen capture enzyme-linked immunosorbent assay.

The results in this text go back to ChEMBL document CHEMBL1143841, “Improved assessment of plasmodium vivax response to antimalarial drugs by a colorimetric double-site plasmodium lactate dehydrogenase antigen capture enzyme-linked immunosorbent assay” (Antimicrob Agents Chemother, 2007).

One may read the IC50 as the point on the concentration scale where inhibition reaches its midpoint. Consider `CCN(CC)CCCC(C)Nc1ccnc2cc(Cl)ccc12` (centres undefined) [CHLOROQUINE], for which the IC50 amounted to 89.9 nM in assay [1], 11.9 nM in assay [2], 5.5 nM in assay [3] and 180 nM in assay [4].
